Columns and labels:
[1] = target: human activated kallikrein enzyme (Homo sapiens, UniProt P03952); experiment: Plasma kallikrein inhibition, fluorogenic PFR-AMC substrate, 500 pM activated kallikrein format; assay type: biochemical; settings: 500 pM activated kallikrein, 300 uM PFR-AMC, 30 min preincubation, 10 min reaction; read-out: Primary Dose Response Assay: Average EC50
How it was run: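 500 pM enz + cpd, 30 min RT preinc; start w/ PFR-AMC 300 uM; 10 min RT; Ex380/Em460. Buffer: Tris 20 mM pH 7.5, EDTA 1 mM, NaCl 150 mM, PEG-400 0.1%, Triton 0.1%. EC50.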

[2] = target: T1, plasma kallikrein (Homo sapiens, UniProt P03952); experiment: Neat human plasma assay, FXIIa contact pathway-activated, PFR-AMC substrate; assay type: biochemical; settings: citrated human plasma 78% final, 10 nM human FXIIa, 100 μM PFR-AMC; read-out: Human Plasma Assay: IC90
T1 construct: from tissue
T1 sequence (P03952 391-638 limits assumed): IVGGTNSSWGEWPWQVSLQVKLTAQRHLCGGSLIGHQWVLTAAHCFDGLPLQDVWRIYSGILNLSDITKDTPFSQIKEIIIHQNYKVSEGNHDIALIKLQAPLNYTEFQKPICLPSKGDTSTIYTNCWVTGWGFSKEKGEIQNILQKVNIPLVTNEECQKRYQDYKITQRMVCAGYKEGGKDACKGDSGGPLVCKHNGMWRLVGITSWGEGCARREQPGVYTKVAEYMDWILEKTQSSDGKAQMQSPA
T1 sequence (P03952 20-390 partner limits assumed): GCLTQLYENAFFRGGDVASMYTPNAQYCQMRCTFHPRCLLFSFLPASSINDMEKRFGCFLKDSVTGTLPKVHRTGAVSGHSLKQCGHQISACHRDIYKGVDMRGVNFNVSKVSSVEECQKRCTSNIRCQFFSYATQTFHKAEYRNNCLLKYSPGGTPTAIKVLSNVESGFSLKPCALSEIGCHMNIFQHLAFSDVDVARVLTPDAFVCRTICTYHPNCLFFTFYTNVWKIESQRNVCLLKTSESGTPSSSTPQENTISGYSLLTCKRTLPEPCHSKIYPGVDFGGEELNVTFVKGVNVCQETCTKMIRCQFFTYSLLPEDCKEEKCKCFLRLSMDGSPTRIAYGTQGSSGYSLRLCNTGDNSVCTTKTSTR
Description: To analyze inhibition of plasma kallikrein in an ex vivo setting, the potency of compounds was measure in contact pathway-activated plasma assays. In a fluorogenic peptide substrate assay, test compounds dissolved in DMSO were added to sodium citrate collected human or rat plasma in a 96-well microplate. Alternatively, citrated plasma was collected from rats administered the compounds orally or by IV. 10 nM of human FXIIa (Enzyme Research Laboratories) diluted in pKal buffer (20 mM Tris-HCl, pH 7.5, 150 mM NaCl, 1 mM EDTA, 0.1% PEG-8000, and 0.1% Triton X-100) was added to the plasma, followed by the 100 μM of the profluorescent, synthetic plasma kallikrein substrate PFR-AMC (also diluted in pKal buffer). Final plasma concentration in the reaction was 78%. Fluorescence was immediately monitored by excitation/emission wavelengths of 360 nm/480 nm respectively over a period of 5 minutes in a microplate reader. The resulting linear increase in fluorescence emission (reflecting pKal proteolysis of PFR-AMC substrate) was fit to extract a proteolytic rate (fluorescent units over time), and this rate was subsequently plotted against compound inhibitor concentration. Resulting plots were fit to a standard 4-parameter IC50/IC90 equation to determine min/max values, IC50/90, and slope. All experimental steps were performed at room temperature. Table 50 provides results of the assay.

Sequence of human activated kallikrein enzyme (P03952 391-638 limits assumed): as the sequence (P03952 391-638 limits assumed) above
Sequence of human activated kallikrein enzyme (P03952 20-390 partner limits assumed): as the sequence (P03952 20-390 partner limits assumed) above

Structure (SMILES) | EC50 [1] [nM] | IC90 [2] [nM]
Cc1ccnc([C@H]2C[C@@H]2C(=O)Nc2cc(OCc3cn4cc(C5CC5)cc(N5CC(=O)N(CCO)C5=O)c4n3)ncn2)n1 (racemic) [Example 33, rac-(1S*,2S*)—N-(6-((6-cyclopropyl-8-(3-(2-hydroxyethyl)-2,4-dioxoimidazolidin-1-yl)imidazo[1,2-a]pyridin-2-yl)methoxy)pyrimidin-4-yl)-2-(4-methylpyrimidin-2-yl)cyclopropane-1-carboxamide] | < 1 | 400 to 1500
O=C(Nc1cc(NCc2cn3cc(C4CC4)ccc3n2)ncn1)[C@H]1C[C@@H]1c1cc(Cl)ccc1Cl (racemic) [Example 49, rac-(1S*,2S*)-N-(6-(((6-cyclopropylimidazo[1,2-a]pyridin-2-yl)methyl)amino)pyrimidin-4-yl)-2-(2,5-dichlorophenyl)cyclopropane-1-carboxamide] | 100 to 1000 | < 400
N#Cc1ccc(Cl)c(F)c1[C@H]1C[C@@H]1C(=O)Nc1cc(NCc2cn3cc(C4CC4)ccc3n2)ncn1 (racemic) [Example 50, rac-(1S*,2S*)-2-(3-chloro-6-cyano-2-fluorophenyl)-N-(6-(((6-cyclopropylimidazo[1,2-a]pyridin-2-yl)methyl)amino)pyrimidin-4-yl)cyclopropane-1-carboxamide] | 1 to 10 | 10000 to 48000
CS(=O)(=O)c1cc(C2CC2)cn2cc(CNc3cc(NC(=O)[C@H]4C[C@@H]4c4cccc(Cl)c4)ncn3)nc12 (racemic) [Example 60, rac-(1S*,2S*)-2-(3-chlorophenyl)-N-(6-(((6-cyclopropyl-8-(methylsulfonyl)imidazo[1,2-α]pyridin-2-yl)methyl)amino)pyrimidin-4-yl)cyclopropane-1-carboxamide] | 1 to 10 | 10000 to 48000
O=C(Nc1cc(NCc2cn3cc(C4CC4)cc(C4(O)COC4)c3n2)ncn1)[C@H]1C[C@@H]1c1cccc(Cl)c1 (racemic) [Example 63, rac-(1S*,2S*)-2-(3-chlorophenyl)-N-(6-(((6-cyclopropyl-8-(3-hydroxyoxetan-3-yl)imidazo[1,2-α]pyridin-2-yl)methyl)amino)pyrimidin-4-yl)cyclopropane-1-carboxamide] | 1 to 10 | 1500 to 10000
O=C(Nc1cc(NCc2cn3cc(C4CC4)cc(C4(F)COC4)c3n2)ncn1)[C@H]1C[C@@H]1c1cccc(Cl)c1 (racemic) [Example 64, rac-(1S*,2S*)-2-(3-chlorophenyl)-N-(6-(((6-cyclopropyl-8-(3-fluorooxetan-3-yl)imidazo[1,2-α]pyridin-2-yl)methyl)amino)pyrimidin-4-yl)cyclopropane-1-carboxamide] | 1 to 10 | > 48000
O=C(Nc1cc(NCc2cn3cc(C4CC4)cc(CO)c3n2)ncn1)[C@H]1C[C@@H]1c1cccc(Cl)c1 (racemic) [Example 70, rac-(1S*,2S*)-2-(3-chlorophenyl)-N-(6-(((6-cyclopropyl-8-(hydroxymethyl)imidazo[1,2-α]pyridin-2-yl)methyl)amino)pyrimidin-4-yl)cyclopropane-1-carboxamide] | 1 to 10 | > 48000
N#Cc1cc(C2CC2)cn2cc(CNc3cc(NC(=O)[C@H]4C[C@@H]4c4cccc(Cl)c4)ncn3)nc12 (racemic) [Example 71, rac-(1S*,2S*)-2-(3-chlorophenyl)-N-(6-(((8-cyano-6-cyclopropylimidazo[1,2-a]pyridin-2-yl)methyl)amino)pyrimidin-4-yl)cyclopropane-1-carboxamide] | 1 to 10 | 10000 to 48000
N#Cc1ccc(Cl)cc1[C@H]1C[C@@H]1C(=O)Nc1cc(NCc2cn3cc(C4CC4)cc(N4CCCC4=O)c3n2)ccn1 (racemic) [Example 79, rac-(1S*2S*)-2-(5-chloro-2-cyanophenyl)-N-(4-(((6-cyclopropyl-8-(2-oxopyrrolidin-1-yl)imidazo[1,2-a]pyridin-2-yl)methyl)amino)pyridin-2-yl)cyclopropane-1-carboxamide] | < 1 | 400 to 1500
N#Cc1ccc(Cl)cc1[C@H]1C[C@@H]1C(=O)Nc1cc(NCc2cn3cc(C4CC4)ccc3n2)ccn1 (racemic) [Example 82, rac-(1S*,2S*)-2-(5-chloro-2-cyanophenyl)-N-(4-(((6-cyclopropylimidazo[1,2-a]pyridin-2-yl)methyl)amino)pyridin-2-yl)cyclopropane-1-carboxamide] | < 1 | 10000 to 48000
N#CCCc1cc(C2CC2)cn2cc(CNc3ccnc(NC(=O)[C@H]4C[C@@H]4c4cccc(Cl)c4)c3)nc12 (racemic) [Example 87, rac-(1S*,2S*)-2-(3-chlorophenyl)-N-(4-(((8-(2-cyanoethyl)-6-cyclopropylimidazo[1,2-a]pyridin-2-yl)methyl)amino)pyridin-2-yl)cyclopropane-1-carboxamide] | 1 to 10 | 10000 to 48000
N#Cc1ccc(Cl)cc1[C@@H]1C[C@H]1C(=O)Nc1cc(NCc2cn3cc(C4CC4)cc(CO)c3n2)ccn1 (racemic) [Example 100, rac-(1S*,2S*)-2-(5-chloro-2-cyanophenyl)-N-(4-(((6-cyclopropyl-8-(hydroxymethyl)imidazo[1,2-a]pyridin-2-yl)methyl)amino)pyridin-2-yl)cyclopropane-1-carboxamide] | < 1 | 10000 to 48000
O=C(Nc1cc(NCc2cn3cc(C4CC4)ccc3n2)cnn1)[C@H]1C[C@@H]1c1cccc(Cl)c1 (racemic) [Example 101, rac-(1S*,2S*)-2-(3-chlorophenyl)-N-(5-(((6-cyclopropylimidazo[1,2-a]pyridin-2-yl)methyl)amino)pyridazin-3-yl)cyclopropane-1-carboxamide] | 1 to 10 | 10000 to 48000
COCc1nc(NCc2cn3cc(C4CC4)ccc3n2)cc(NC(=O)[C@@H]2C[C@H]2c2cccc(Cl)c2)n1 (racemic) [Example 108, rac-(1S*,2S*)-2-(3-chlorophenyl)-N-(6-(((6-cyclopropylimidazo[1,2-a]pyridin-2-yl)methyl)amino)-2-(methoxymethyl)pyrimidin-4-yl)cyclopropane-1-carboxamide] | 1 to 10 | 10000 to 48000
Cc1ccnc([C@H]2C[C@@H]2C(=O)Nc2cc(NCc3cn4cc(C5CC5)cc(N5CC(=O)N(C)C5=O)c4n3)nc(C3(O)COC3)n2)n1 (racemic) [Example 113, rac-(1S*,2S*)—N-(6-(((6-cyclopropyl-8-(3-methyl-2,4-dioxoimidazolidin-1-yl)imidazo[1,2-a]pyridin-2-yl)methyl)amino)-2-(3-hydroxyoxetan-3-yl)pyrimidin-4-yl)-2-(4-methylpyrimidin-2-yl)cyclopropane-1-carboxamide] | < 1 | 400 to 1500
Cc1ccnc([C@H]2C[C@@H]2C(=O)Nc2cc(NCc3cn4cc(C5CC5)cc(N5CC(=O)N(C)C5=O)c4n3)nc(C3(F)COC3)n2)n1 (racemic) [Example 114, rac-(1S*,2S*)—N-(6-(((6-cyclopropyl-8-(3-methyl-2,4-dioxoimidazolidin-1-yl)imidazo[1,2-a]pyridin-2-yl)methyl)amino)-2-(3-fluorooxetan-3-yl)pyrimidin-4-yl)-2-(4-methylpyrimidin-2-yl)cyclopropane-1-carboxamide] | 1 to 10 | 400 to 1500

From patent US20240228488A1 (TAKEDA PHARMACEUTICAL COMPANY LIMITED, priority 2021, published 2024)
